Values of other authors in US20180298405A1, “METHODS AND COMPOSITIONS TO INCREASE HUMAN SOMATIC CELL NUCLEAR TRANSFER (SCNT) EFFICIENCY BY REMOVING HISTONE H3-LYSINE TRIMETHYLATION, AND DERIVATION OF HUMAN NT-ESC” (CHILDREN'S MEDICAL CENTER CORPORATION, priority 2015, published 2018).

System: SETDB1 H3K9me3 HMTase; H3K27me3 and H3K9me3
Conditions: Lee et al., 2013; cited from earlier work

## Nc1nccc2c1ncn2[C@@H]1C=C(CO)[C@@H](O)[C@H]1O [3-Deazaneplanocin A]
  effect on H3K27me3 and H3K9me3 levels: reduced levels of both H3K27me3 and H3K9me3
  effect on SETDB1 H3K9me3 HMTase: decrease of SETDB1 H3K9me3 HMTase
